Data: US6914045B2, “Glycopeptide antibiotics” (Wyeth Holdings Corporation, priority 2001, dated 2005)
≈ marks a conversion by molar mass, not a printed value.

Experiments:
Assay in all cases: in vitro antibacterial evaluation, MIC by broth dilution
Type in all cases: cell-based
Enterococcus sp. = settings: broth dilution, 18 hours at 35° C.
Outline: (§1)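 MIC, the lowest antibiotic concentration preventing growth, was read across 64-0.06 μg/mL with 5×10^5 CFU/mL inoculum. Method followed NCCLS M7-A2 broth dilution using Mueller-Hinton II; Gram-positive strains covered recent methicillin-, penicillin- and/or vancomycin-resistant clinical isolates.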

Escherichia coli = settings: 18 hours at 35° C.
Outline: as §1

Staphylococcus sp. = settings: broth dilution, 18 hours at 35° C.
Outline: as §1

Streptococcus sp. = settings: broth dilution, 18 hours at 35° C.
Outline: as §1

SMILES: CC(c1ccccc1)C1NC(=O)CNC(=O)C(CO)NC(=O)C(C(O)C2CNC(=N)N2C2OC(CO)C(O)C(O)C2O)NC(=O)C(C(O)C2CNC(=N)N2)NC(=O)C(Cc2ccc(OC3OC(CO)C(OC4OC5COC(CC67CC8CC(CC(C8)C6)C7)OC5C(O)C4O)C(O)C3O)cc2)NC1=O (stereo not shown) [Example 129]
- MIC Enterococcus avium (GC 4558) (Enterococcus sp.; Enterococcus avium (GC 4558)): 2 µg/mL (≈ 1.37 µM)
- MIC Enterococcus faecalis (ATCC 29212) (Enterococcus sp.; Enterococcus faecalis (ATCC 29212)): 2 µg/mL (≈ 1.37 µM)
- MIC Enterococcus faecalis (GC 2242) (Enterococcus sp.; Enterococcus faecalis (GC 2242)): 2 µg/mL (≈ 1.37 µM)
- MIC Enterococcus faecalis (GC 2691) (Enterococcus sp.; Enterococcus faecalis (GC 2691)): 2 µg/mL (≈ 1.37 µM)
- MIC Enterococcus faecalis (GC 3059) (Enterococcus sp.; Enterococcus faecalis (GC 3059)): 2 µg/mL (≈ 1.37 µM)
- MIC Enterococcus faecalis (GC 4552) (Enterococcus sp.; Enterococcus faecalis (GC 4552)): 2 µg/mL (≈ 1.37 µM)
- MIC Enterococcus faecalis (GC 4553) (Enterococcus sp.; Enterococcus faecalis (GC 4553)): 2 µg/mL (≈ 1.37 µM)
- MIC Enterococcus faecalis (GC 4554) (Enterococcus sp.; Enterococcus faecalis (GC 4554)): 2 µg/mL (≈ 1.37 µM)
- MIC Enterococcus faecalis (GC 6189) (Enterococcus sp.; Enterococcus faecalis (GC 6189)): 2 µg/mL (≈ 1.37 µM)
- MIC Enterococcus faecium (GC 2243) (Enterococcus sp.; Enterococcus faecium (GC 2243)): 2 µg/mL (≈ 1.37 µM)
- MIC Enterococcus faecium (GC 4556) (Enterococcus sp.; Enterococcus faecium (GC 4556)): 2 µg/mL (≈ 1.37 µM)
- MIC Enterococcus faecium (GC 4557) (Enterococcus sp.; Enterococcus faecium (GC 4557)): 2 µg/mL (≈ 1.37 µM)
- MIC Enterococcus faecalis (ATCC 29212) (Enterococcus sp.; strain ATCC 29212): 2 µg/mL (≈ 1.37 µM)
- MIC Enterococcus faecalis (GC 2242) (Enterococcus sp.; strain GC 2242): 2 µg/mL (≈ 1.37 µM)
- MIC Enterococcus faecium (GC 2243) (Enterococcus sp.; strain GC 2243): 2 µg/mL (≈ 1.37 µM)
- MIC Enterococcus faecalis (GC 2691) (Enterococcus sp.; strain GC 2691): 2 µg/mL (≈ 1.37 µM)
- MIC Enterococcus faecalis (GC 3059) (Enterococcus sp.; strain GC 3059): 2 µg/mL (≈ 1.37 µM)
- MIC Enterococcus faecalis (GC 4552) (Enterococcus sp.; strain GC 4552): 2 µg/mL (≈ 1.37 µM)
- MIC Enterococcus faecalis (GC 4553) (Enterococcus sp.; strain GC 4553): 2 µg/mL (≈ 1.37 µM)
- MIC Enterococcus faecalis (GC 4554) (Enterococcus sp.; strain GC 4554): 2 µg/mL (≈ 1.37 µM)
- MIC Enterococcus faecium (GC 4556) (Enterococcus sp.; strain GC 4556): 2 µg/mL (≈ 1.37 µM)
- MIC Enterococcus faecium (GC 4557) (Enterococcus sp.; strain GC 4557): 2 µg/mL (≈ 1.37 µM)
- MIC Enterococcus avium (GC 4558) (Enterococcus sp.; strain GC 4558): 2 µg/mL (≈ 1.37 µM)
- MIC Enterococcus faecalis (GC 6189) (Enterococcus sp.; strain GC 6189): 2 µg/mL (≈ 1.37 µM)
- MIC Escherichia coli (ATCC 25922) (Escherichia coli; strain ATCC 25922): 32 µg/mL (≈ 22 µM)
- MIC Escherichia coli (GC 4559) (Escherichia coli; strain GC 4559): 32 µg/mL (≈ 22 µM)
- MIC Escherichia coli (GC 4560) (Escherichia coli; strain GC 4560): 2 µg/mL (≈ 1.37 µM)
- MIC Staphylococcus aureus (ATCC 29213) (Staphylococcus sp.): 4 µg/mL (≈ 2.75 µM)
- MIC Staphylococcus aureus (GC 1131) (Staphylococcus sp.): 2 µg/mL (≈ 1.37 µM)
- MIC Staphylococcus aureus (GC 3051) (Staphylococcus sp.): 2 µg/mL (≈ 1.37 µM)
- MIC Staphylococcus aureus (GC 3053) (Staphylococcus sp.): 2 µg/mL (≈ 1.37 µM)
- MIC Staphylococcus aureus (GC 4541) (Staphylococcus sp.): 2 µg/mL (≈ 1.37 µM)
- MIC Staphylococcus aureus (GC 4542) (Staphylococcus sp.): 2 µg/mL (≈ 1.37 µM)
- MIC Staphylococcus aureus (GC 4544) (Staphylococcus sp.): 2 µg/mL (≈ 1.37 µM)
- MIC Staphylococcus aureus (GC 4545) (Staphylococcus sp.): 2 µg/mL (≈ 1.37 µM)
- MIC Staphylococcus aureus (GC 1131) (Staphylococcus sp.; inoculum 5×10^5 CFU/mL, strain GC 1131): 2 µg/mL (≈ 1.37 µM)
- MIC Staphylococcus aureus (ATCC 29213) (Staphylococcus sp.; strain ATCC 29213): 4 µg/mL (≈ 2.75 µM)
- MIC Staphylococcus aureus (GC 3051) (Staphylococcus sp.; strain GC 3051): 2 µg/mL (≈ 1.37 µM)
- MIC Staphylococcus aureus (GC 3053) (Staphylococcus sp.; strain GC 3053): 2 µg/mL (≈ 1.37 µM)
- MIC Staphylococcus aureus (GC 4541) (Staphylococcus sp.; strain GC 4541): 2 µg/mL (≈ 1.37 µM)
- MIC Staphylococcus aureus (GC 4542) (Staphylococcus sp.; strain GC 4542): 2 µg/mL (≈ 1.37 µM)
- MIC Staphylococcus aureus-SMITH (GC 4543) (Staphylococcus sp.; strain GC 4543): 2 µg/mL (≈ 1.37 µM)
- MIC Staphylococcus aureus (GC 4544) (Staphylococcus sp.; strain GC 4544): 2 µg/mL (≈ 1.37 µM)
- MIC Staphylococcus aureus (GC 4545) (Staphylococcus sp.; strain GC 4545): 2 µg/mL (≈ 1.37 µM)
- MIC Staphylococcus haemolyticus (GC 4546) (Staphylococcus sp.; strain GC 4546): 2 µg/mL (≈ 1.37 µM)
- MIC Coagulase Negative Staphylococcus (GC 4547) (Staphylococcus sp.; strain GC 4547): 2 µg/mL (≈ 1.37 µM)
- MIC Coagulase Negative Staphylococcus (GC 4548) (Staphylococcus sp.; strain GC 4548): 1 µg/mL (≈ 0.687 µM)
- MIC Coagulase Negative Staphylococcus (GC 4549) (Staphylococcus sp.; strain GC 4549): 1 µg/mL (≈ 0.687 µM)
- MIC Coagulase Negative Staphylococcus (GC 4551) (Staphylococcus sp.; strain GC 4551): 4 µg/mL (≈ 2.75 µM)
- MIC Coagulase Negative Staphylococcus (GC 6257) (Staphylococcus sp.; strain GC 6257): 1 µg/mL (≈ 0.687 µM)
- MIC Staphylococcus aureus-SMITH (GC 4543) (Staphylococcus sp.; strain SMITH GC 4543): 2 µg/mL (≈ 1.37 µM)
- MIC Streptococcus agalactiae (GC 4564) (Streptococcus sp.; Streptococcus agalactiae (GC 4564)): <0.06 µg/mL
- MIC Streptococcus pneumoniae (ATCC 6301) (Streptococcus sp.; Streptococcus pneumoniae (ATCC 6301)): <0.06 µg/mL
- MIC Streptococcus pneumoniae (GC 1894) (Streptococcus sp.; Streptococcus pneumoniae (GC 1894)): <0.06 µg/mL
- MIC Streptococcus pneumoniae (GC 4565) (Streptococcus sp.; Streptococcus pneumoniae (GC 4565)): <0.06 µg/mL
- MIC Streptococcus pyogenes (GC 4563) (Streptococcus sp.; Streptococcus pyogenes (GC 4563)): <0.06 µg/mL
- MIC Streptococcus pneumoniae (ATCC 6301) (Streptococcus sp.; strain ATCC 6301): <0.06 µg/mL
- MIC Streptococcus pneumoniae (GC 1894) (Streptococcus sp.; strain GC 1894): <0.06 µg/mL
- MIC Streptococcus pyogenes (GC 4563) (Streptococcus sp.; strain GC 4563): <0.06 µg/mL
- MIC Streptococcus agalactiae (GC 4564) (Streptococcus sp.; strain GC 4564): <0.06 µg/mL
- MIC Streptococcus pneumoniae (GC 4565) (Streptococcus sp.; strain GC 4565): <0.06 µg/mL
